A short description of the data set: Human HepG2 cell viability assay in 384 well format. The data set is classed as toxicity, cell-based. The following applies: HepG2 cells, read-out: Inhibition. The arrangement: dose 125 nL, time 70.5 hour; concentration not given beside the values.

Molecules are shown by their SMILES.

103 compounds from ChEMBL document CHEMBL3507680, “University of Dundee, Gates Library screen for HepG2 cell viability” can be followed below.

Take `CCc1nc(CC(=O)N2CCn3c(CC)nnc3C2)cs1`: the cytotoxicity at 70.5 h is -2.3%. The same measure for `COCCNC(=O)Nc1ccc(-n2cncn2)c(C(F)(F)F)c1`: -3.51%. The same measure for `COc1ccc(C(CNC(=O)Nc2cc(C)nn2C)N(C)C)cc1` (stereo not drawn): -5.49%; for `CCCNC(=O)CCOc1cccc(F)c1`: -3.12%; for `Cn1cc(Cl)cc1C(=O)N1CCCN(Cc2ccccc2)CC1`: -8.08%. On to `O=C(NCCCNc1ccc(C(F)(F)F)cn1)c1ccc2c(c1)OCO2`, for which the cytotoxicity at 70.5 h was -9.51%.

For the compound `CSCc1ccc(C(=O)NCCCNc2ccc(C(F)(F)F)cn2)cc1`, the cytotoxicity at 70.5 h is -13.3%. For the compound `COCc1ccc(C(=O)NCCCNc2ccc(C(F)(F)F)cn2)cc1`, the cytotoxicity at 70.5 h was -11.2%. The same measure for `Cn1cc(C#N)c(=O)n(CC(O)c2ccccc2F)c1=O` (stereo not drawn): -13.2%. Turning to `Cc1cc(NC(=O)NCC(O)COc2ccccc2)n(C)n1` (stereo not drawn), the cytotoxicity at 70.5 h is -11.6%. The figure for `N#Cc1cn(C2CC2)c(=O)n(CC(O)c2ccccc2C(F)(F)F)c1=O` (stereo not drawn) is -15.2%; for `Cn1cc(Cl)cc1C(=O)N1CCN(CCc2cccs2)CC1` it is -4.15%; for `Cc1ccc(C(=O)N2CCCN(Cc3cccs3)CC2)n1C` it is -7.93%. The same measure for `CC(C)(CNC(=O)COc1cccc(F)c1)C(N)=O`: -9.07%; for `Cc1cc(C)c(CNC(=O)N2CCN(c3ccncc3)CC2)c(=O)[nH]1`: -9.77%. On to `c1coc(-c2noc(CN3CCc4cncnc4C3)n2)c1`, for which the cytotoxicity at 70.5 h is -7.56%. The same measure for `O=C(NCCCOCC1CC1)Nc1ccc(-n2cncn2)c(F)c1`: -13.3%; for `Cc1cnn(CC(=O)N2CCC(Nc3ccc(C)nn3)CC2)c1`: 12.8%; for `Cc1ccsc1CNCC1CCCN1c1cccnn1` (stereo not drawn): 19.9%. The same measure for `COc1cccc(COCC(=O)N2CCCCCC2)c1`: 17.5%. The figure for `CC(C)CCc1nc(CNCC2CCCN2c2cccnn2)cs1` (stereo not drawn) is 12.1%; for `Cc1nc(CN2CCCC2Cn2cncn2)no1` (stereo not drawn) it is 13.1%. In the case of `CC(C)Cc1nc(CN2CCCC2Cn2cncn2)no1` (stereo not drawn), the cytotoxicity at 70.5 h was -7.43%. The same measure for `COCCc1noc(CN2CCCCC2Cn2cncn2)n1` (stereo not drawn): -8.74%; for `CC(C)c1nc(CN2CCCC2Cn2cncn2)no1` (stereo not drawn): 5.22%; for `CCc1nc(CNCC2CCCN2c2cccnn2)cs1` (stereo not drawn): -6.05%. On to `CC(C)c1nc(CNCC2CCCN2c2cccnn2)cs1` (stereo not drawn), for which the cytotoxicity at 70.5 h is -8.04%. For `c1ccc(-c2nc(CN3CCCC3Cn3cncn3)no2)cc1` (stereo not drawn), the cytotoxicity at 70.5 h is -13.3%. The figure for `Cc1ncsc1C(=O)N(C)Cc1ccsc1` is -12.2%. Take `CCN(CC1COc2ccccc2O1)C(=O)NCCCn1cncn1` (stereo not drawn): the cytotoxicity at 70.5 h is -10.8%.

Consider `O=C(Cn1nc(-c2ccc(F)cc2)oc1=O)NCCc1ccccc1`, for which the cytotoxicity at 70.5 h is -10.7%. The figure for `Cc1nn(C)c(C)c1C(=O)NCc1ccnc(OCC(F)(F)F)c1` is -4.39%. The same measure for `COCCn1cc(NC(=O)NCC(c2cccc(F)c2)N(C)C)cn1` (stereo not drawn): -2.22%; for `Cc1cc(C)n(-c2ccc(CNCc3ccc(C)o3)cn2)n1`: -7.08%; for `CCn1cc(NC(=O)NCC(c2ccsc2)N(C)C)cn1` (stereo not drawn): -6.99%. The same measure for `O=C(Nc1ccncc1)N(CCO)Cc1ccsc1`: -20%; for `COc1ccc(OC2CCN(C(=O)c3ccc(C)[nH]c3=O)CC2)cc1`: -5.37%; for `CCN(CC1COc2ccccc2O1)C(=O)CCn1cncn1` (stereo not drawn): -5.89%. Regarding `CC(C)c1nccn1C1CCCN(C(=O)c2cccc3[nH]ncc23)C1` (stereo not drawn), the cytotoxicity at 70.5 h is -8.02%. The same measure for `Cc1cc(C)n(CC2CCCN2Cc2cscn2)n1` (stereo not drawn): 5.49%; for `Cc1cnc(C(=O)Nc2cc(F)ccc2OCC2CCCO2)cn1` (stereo not drawn): -6.23%. The same measure for `Cc1nc(CN2CCCC(NCC(=O)Nc3cccnc3)C2)no1` (stereo not drawn): -8.83%; for `Cc1cc(NC(=O)CN2CCn3c(nnc3C3CC3)C2)no1`: -5.22%. The figure for `Cc1nc2ccccc2nc1CN1CCCCC1Cn1cncn1` (stereo not drawn) is -8.21%; for `CCc1nccn1C1CCCN(C(=O)c2ccc3[nH]nnc3c2)C1` (stereo not drawn) it is -8.95%. For `CC(C)c1nnc2n1CCN(C(=O)COc1ccc(C(N)=O)cc1)C2`, the cytotoxicity at 70.5 h was -6.98%. Turning to `Cn1nc(C(=O)N2CCCC(n3cncn3)C2)ccc1=O` (stereo not drawn), the cytotoxicity at 70.5 h is -7.35%. The same measure for `Cn1cc(C(=O)N2CCCC(n3cncn3)C2)ccc1=O` (stereo not drawn): -9.74%; for `Cc1cc(NC(=O)CN2CCn3c(C)nnc3C2)no1`: -7.43%. The same measure for `Cc1cnc(CN2CCOC(CN(C)c3cccnn3)C2)cn1` (stereo not drawn): -0.738%; for `Cc1nc(CN(C)CC2CCCN2c2cccnn2)oc1C` (stereo not drawn): -1.57%; for `Cc1nc(C)c(C(=O)N2CCCN(Cc3cnn(C)c3)CC2)s1`: -3.11%. Consider `CC(C)S(=O)(=O)C(C)C(=O)NCc1cccc(N2CCCCC2=O)c1` (stereo not drawn), for which the cytotoxicity at 70.5 h was 13.6%.

For the compound `CNS(=O)(=O)c1cccc(CNC(=O)NCC2CCOC2)c1` (stereo not drawn), the cytotoxicity at 70.5 h was -8.46%.

On to `Cc1noc(C2CCN(C(=O)c3cc(Br)ccc3F)CC2)n1`, for which the cytotoxicity at 70.5 h is -2.54%. The figure for `O=C(c1ccccn1)N1CCCN(Cc2nnc(C3CC3)o2)CC1` is -9.21%; for `CN(Cc1ccco1)C(=O)CN1CCCC1Cn1cccn1` (stereo not drawn) it is -3.69%; for `CN(Cc1ccco1)C(=O)CN1CCCCC1Cn1cncn1` (stereo not drawn) it is -8.72%. The figure for `O=C(NCc1cccc(N2CCCCC2=O)c1)[C@@H](O)c1ccccc1` is -7.54%; for `COC(=O)N1CCCN(C(=O)c2cccc3cccnc23)CC1` it is -7.61%; for `Cc1nnc(N2CCC(NS(C)(=O)=O)CC2)c(C#N)c1C` it is -5.64%. With `Cc1cc(CN(C)C(=O)NC2CCN(S(C)(=O)=O)CC2)no1`, the cytotoxicity at 70.5 h was -9.54%.

On to `Cc1noc(C2CCCN(C(=O)c3ccc(F)cc3F)C2)n1` (stereo not drawn), for which the cytotoxicity at 70.5 h is -8.76%.

For `CC(O)CN(CC(=O)NC1CCCCC1)c1ccccc1` (stereo not drawn), the cytotoxicity at 70.5 h amounted to 8.65%. Take `Cc1ccc2cccc(C(=O)N3CCN(c4cccnn4)CC3)c2n1`: the cytotoxicity at 70.5 h was -9.4%. `CCn1cnnc1C1CCN(C(=O)COc2ccccc2OC)CC1`: the cytotoxicity at 70.5 h came to 6.54%.

For `CN(Cc1coc(-c2ccccc2)n1)CC1CCCN1c1cccnn1` (stereo not drawn), the cytotoxicity at 70.5 h stood at 4.57%. With `CC(C(=O)Nc1ccnn1C(C)C)N1CCCN(c2nccs2)CC1` (stereo not drawn), the cytotoxicity at 70.5 h is -3.68%.

Regarding `CCc1nc(CN2CCCN(C(=O)C3CCC3)CC2)cs1`, the cytotoxicity at 70.5 h worked out at 5.44%. The figure for `CCc1nc(CN2CCCN(C(=O)c3occc3C)CC2)cs1` is -7.91%; for `O=C(c1ccccn1)N1CCC(Nc2cccnn2)CC1` it is 2.46%; for `c1ccc(-c2nc(CNCCn3cccn3)cs2)cc1` it is -4.17%.

As for `Cc1n[nH]c(=O)c2c(NC(=O)CN3CCC(C)CC3)oc(C)c12`, the cytotoxicity at 70.5 h is -10.7%. Consider `O=C(NCCn1nc2ccccn2c1=O)c1cc(-c2ccccc2)[nH]n1`, for which the cytotoxicity at 70.5 h was -5.05%.

With `CCCc1cc(C(=O)NCCn2nc3ccccn3c2=O)[nH]n1`, the cytotoxicity at 70.5 h is -9.65%. For `CC(C)(C)c1cc(C(=O)NCCn2nc3ccccn3c2=O)[nH]n1`, the cytotoxicity at 70.5 h was -4.69%.

As to `Cc1occc1CN(C)Cc1nc2c(cnn2C)c(=O)[nH]1`, the cytotoxicity at 70.5 h was -3.6%.

For `Cc1ccc(CN(C)Cc2nc3c(cnn3C)c(=O)[nH]2)o1`, the cytotoxicity at 70.5 h was -2.01%. The same measure for `CC1CN(CC(=O)N2CCCC2)CCN1c1ccc2nncn2n1` (stereo not drawn): 4.7%; for `Cc1cc(NC(=O)C(C)N2CCN(c3nc(C)cs3)CC2)on1` (stereo not drawn): -5.64%; for `CCn1cnnc1C1CCCN(C(=O)COc2ccc(Cl)cc2)C1` (stereo not drawn): -5.18%. The figure for `Cc1cn2nc(N3CCCC3Cn3cncn3)sc2n1` (stereo not drawn) is -3.48%. The figure for `Cc1cc(C(=O)N2CCC(Nc3cccnn3)CC2)no1` is 11.5%. In the case of `CN(Cc1cc(-c2ccccc2)no1)CC1CCCN1c1cccnn1` (stereo not drawn), the cytotoxicity at 70.5 h is -8.09%.

For the compound `CC(O)CN1CCN(C(=O)c2cccc3[nH]ncc23)CC1` (stereo not drawn), the cytotoxicity at 70.5 h was -3.67%. The same measure for `Cc1nnc(CN(C)CC2CCCN2c2cccnn2)o1` (stereo not drawn): -3.53%. The same measure for `CC(C)(C)c1cn2nc(N3CCCCC3Cn3cncn3)sc2n1` (stereo not drawn): 4.02%. The same measure for `CCC(O)CN1CCN(C(=O)c2cccc3[nH]ncc23)CC1` (stereo not drawn): -10.6%; for `CSCCC(=O)NS(=O)(=O)c1ccc2c(c1)OCCO2`: -7.91%.

With `O=C(CCc1ccc(F)cc1)NS(=O)(=O)c1ccc2c(c1)OCCCO2`, the cytotoxicity at 70.5 h is 4.05%. The figure for `O=C(CCSc1ccccc1)NS(=O)(=O)c1ccc2c(c1)OCCO2` is -6.91%; for `CC(c1nc(C2CC2)no1)N1CCN(Cc2cccnc2)CC1` (stereo not drawn) it is -6.99%; for `CC(C)n1nc2c(cc1=O)CN(Cc1nnc(C3CC3)o1)CC2` it is -3.62%. Turning to `CC(c1nc(C2CC2)no1)N1CCN(Cc2ccc(C#N)cc2)CC1` (stereo not drawn), the cytotoxicity at 70.5 h was 5.31%. The same measure for `CCOc1cccc(NS(=O)(=O)c2cc(C(=O)O)cs2)c1`: -11.8%; for `CC1CCN(Cn2nc(-c3ccc(F)cc3)oc2=O)CC1`: 18.6%. The same measure for `Cc1cccc(C(=O)NCc2ccc(S(N)(=O)=O)cc2)n1`: -12.2%; for `CC(NC(=O)NCCNc1ncccn1)c1cccs1` (stereo not drawn): 1.09%. For `CC1CCCN(CCNC(=O)c2ccn(-c3ccccc3)n2)C1` (stereo not drawn), the cytotoxicity at 70.5 h is -5.27%. Turning to `CC(C)c1cc(NC(=O)c2ccc(C(=O)NC(C)(C)C)cc2)[nH]n1`, the cytotoxicity at 70.5 h was -4.05%. The same measure for `Cn1ccc(CN2CCC(Oc3ccccc3)CC2)cc1=O`: -12%; for `c1cc2n(n1)CC(CNCc1ccc(OC3CCCCC3)nc1)CN2` (stereo not drawn): 0.985%; for `Cc1noc(C(C)C)c1C(=O)NCc1cc(F)cc(F)c1`: -4.07%.
